Holding throughout (type): cell-based
Assay [1] relates to GEMS receptors with CBPnavi (BclXL–LD3 and Bcl2), STAT3-driven SEAP in HEK293T cells. Put plainly: GEMS SEAP reporter assay, CBPnavi. The procedure: HEK293T cells were seeded in a 96-well plate 24 h before transfection. The transfection mix in each well consisted of 3 ng of constitutive human CMV promoter driven mammalian STAT3 expression vector (PhCMV-STAT3-pA), 30 ng of STAT3-induced reporter expression (OStat3-PhCMVmin-SEAP-pA) and 50 ng of expression vectors for each GEMS receptor chain (PSV40-IgK-(drughigh receptor)-EpoRm-IL-6RBm-pA and PSV40-IgK-(druglow receptor-GGGGSX3-LD3)-EpoRm-IL-6RBm-pA). For the specific drughigh receptor and druglow receptor used in the different cellular assays, they are indicated as wild type or with mutations. […] For drug treatment experiments, drugs were added 12 h post-transfection and incubated with cells for 24 h before the SEAP reporter detection assay.
Binding affinities of SPR drug competition assays were calculated using three-parameter nonlinear regression in GraphPad Prism (v.8.3.0). Representative data of cell assays are presented as individual values and mean values (bars). n = 3 refers to biological replicates. All IC50 or EC50 values of cell assays reported were calculated using four-parameter nonlinear regression ± s.d. Bandpass features of cutoff concentrations and Bandwidth90% were estimated based on the curve fitted using bell-shaped curve nonlinear regression in GraphPad Prism (v.8.3.0).
Background: Reporter assays use an easily measured gene product as a stand-in for the process of interest.

The target in assay [2] is GEMS receptors with BclXL:LD3 in HEK293T cells (Homo sapiens, UniProt Q07817). The procedure: HEK293T cells were seeded in a 96-well plate 24 h before transfection. The transfection mix in each well consisted of 3 ng of constitutive human CMV promoter driven mammalian STAT3 expression vector (PhCMV-STAT3-pA), 30 ng of STAT3-induced reporter expression (OStat3-PhCMVmin-SEAP-pA) and 50 ng of expression vectors for each GEMS receptor chain (PSV40-IgK-(drughigh receptor)-EpoRm-IL-6RBm-pA and PSV40-IgK-(druglow receptor-GGGGSX3-LD3)-EpoRm-IL-6RBm-pA). For the specific drughigh receptor and druglow receptor used in the different cellular assays, they are indicated as wild type or with mutations. Then, plasmid DNA was mixed with 50 μl opti-MEM (Thermo Fisher) and 600 ng of polyethyleneimine (Polysciences, catalog no. 24765-1). […]
(§1) SEAP activity (U l^−1) in cell culture supernatants was quantified by kinetic measurements at 405 nm (1 minute per measurement for 30 cycles) of absorbance increase due to phosphatase-mediated hydrolysis of para-nitrophenyl phosphate (pNPP). […]
production of HEK293T cells. […] SEAP quantifications were performed to measure the protein production and WST-8 was used to test the cell proliferation. For cell proliferation assay, WST-8 was added after 24 hours of drug incubation, and measured its absorbance at 450 nm 4 hours later. […]

Assay [3] deals with GEMS receptors with Bcl2:LD3 in HEK293T cells (Homo sapiens, UniProt P10415). Put plainly: GEMS SEAP reporter assay, Bcl2:LD3 complex disruption. Set-up: key: SEAP activity in U/L. The settings on record: Supp Fig 3a. The protocol: HEK293T cells were seeded in a 96-well plate 24 h before transfection. The transfection mix in each well consisted of 3 ng of constitutive human CMV promoter driven mammalian STAT3 expression vector (PhCMV-STAT3-pA), 30 ng of STAT3-induced reporter expression (OStat3-PhCMVmin-SEAP-pA) and 50 ng of expression vectors for each GEMS receptor chain (PSV40-IgK-(drughigh receptor)-EpoRm-IL-6RBm-pA and PSV40-IgK-(druglow receptor-GGGGSX3-LD3)-EpoRm-IL-6RBm-pA). For the specific drughigh receptor and druglow receptor used in the different cellular assays, they are indicated as wild type or with mutations. Then, plasmid DNA was mixed with 50 μl opti-MEM (Thermo Fisher) and 600 ng of polyethyleneimine (Polysciences, catalog no. 24765-1). For drug treatment experiments, drugs were added 12 h post-transfection and incubated with cells for 24 h before the SEAP reporter detection assay.
as §1

Several values for one entry are separate records, joined by “and”; a condition that tells them apart may be missing. Equal values may be shown once. Read-outs that look alike come from different tables or passages of the source.

Chain of GEMS receptors with Bcl2:LD3 in HEK293T cells (P10415 whole entry): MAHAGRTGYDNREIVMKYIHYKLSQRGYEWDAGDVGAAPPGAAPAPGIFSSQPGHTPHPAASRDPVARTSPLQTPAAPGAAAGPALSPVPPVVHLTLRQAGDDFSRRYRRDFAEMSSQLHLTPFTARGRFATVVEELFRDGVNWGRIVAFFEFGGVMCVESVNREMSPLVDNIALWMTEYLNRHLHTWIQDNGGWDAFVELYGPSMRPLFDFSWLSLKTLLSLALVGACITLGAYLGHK
Chain of GEMS receptors with BclXL:LD3 in HEK293T cells (Q07817 whole entry): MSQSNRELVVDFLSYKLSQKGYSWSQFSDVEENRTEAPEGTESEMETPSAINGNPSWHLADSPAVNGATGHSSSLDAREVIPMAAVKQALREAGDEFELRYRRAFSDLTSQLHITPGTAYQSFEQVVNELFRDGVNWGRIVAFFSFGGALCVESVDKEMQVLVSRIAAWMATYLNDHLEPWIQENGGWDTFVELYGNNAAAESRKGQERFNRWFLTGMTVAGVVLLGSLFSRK

As to `CC1(C)CCC(c2ccc(Cl)cc2)=C(CN2CCN(c3ccc(C(=O)NS(=O)(=O)c4ccc(N[C@H](CCN5CCOCC5)CSc5ccccc5)c(S(=O)(=O)C(F)(F)F)c4)cc3)CC2)C1` [Navitoclax], the “Dip (bell-shaped fit, best-fit value)” value in assay [1] (CBPnavi, Fig 3c) is 146.8. Further, the “Plateau1 (bell-shaped fit, best-fit value)” value in assay [1] (CBPnavi, Fig 3c) is 13.3. The “Plateau2 (bell-shaped fit, best-fit value)” value in assay [1] (CBPnavi, Fig 3c) was found to be 20.77. Further, the “nH1 (bell-shaped fit, best-fit value)” value in assay [1] (CBPnavi, Fig 3c) is -2.607. Moreover, in assay [1] (CBPnavi, Fig 3c), the “nH2 (bell-shaped fit, best-fit value)” value is -2.347. In addition, the EC50 stood at 66.5 nM in assay [1] (Homo sapiens, HEK-293T, read-out: EC50_1 (bell-shaped fit, best-fit value)); 2850 nM in assay [1] (Homo sapiens, HEK-293T, read-out: EC50_2 (bell-shaped fit, best-fit value)); 65 nM in assay [1] (Homo sapiens, HEK-293T, read-out: EC50 of the ON phase). Besides, the IC50 in assay [1] (Homo sapiens, HEK-293T, read-out: IC50 of the OFF phase) was found to be 2820 nM. Besides, the “more potent activity to BclXL than to Bcl2” value in assay [2] was “approximately 4.4 fold”. Further, the “dose response (SEAP)” value was 217.89 and 244.414 and 201.569 in assay [3] (Navitoclax 1 nM); 251.97 and 247.153 and 223.02 in assay [3] (Navitoclax 3.18 nM); 225.391 and 249.837 and 220.973 in assay [3] (Navitoclax 10 nM); 203.543 and 185.176 and 172.987 in assay [3] (Navitoclax 31.8 nM); 207.157 and 228.932 and 148.919 in assay [3] (Navitoclax 100 nM); 189.257 and 207.554 and 159.852 in assay [3] (Navitoclax 318 nM). Also, the “dose response (SEAP)” value is 160.635 and 174.477 and 98.5023 in assay [3] (Navitoclax 1000 nM); 138.28 and 140.892 and 97.3043 in assay [3] (Navitoclax 3180 nM); 109.056 and 131.507 and 65.8832 in assay [3] (Navitoclax 10000 nM).

One may read the IC50 as the midpoint of a concentration-inhibition curve.

Values taken from publication PMC11062894, “Protein-based bandpass filters for controlling cellular signaling with chemical inputs” (Nature Chemical Biology, 2023).
